Data: patent US4446141A, “Hypotensive piperidine derivatives” (priority 1978, dated 1984)
Structures can show the parent of a compound that is named as a salt. Where two headings read alike, the source gives them in different places.

Legend:
blood pressure [1] = assay: Experiment 3 Hypotensive action (maximum reduction in blood pressure); type: in vivo, Wistar-strain rats; conditions: read-out: BP: Reduction of blood pressure
male dd-strain mice = conditions: mouse, in vivo
blood pressure [2] = assay: Experiment 6 Dosage-reaction curve, spontaneously hypertensive rats; type: in vivo; conditions: SHR, 50 mg/kg oral; average of five rats
Text: (§1) Experiment 6 Dosage-reaction curve: compared with betanidin
(§2) Five spontaneously hypertensive rats (16 weeks old) and five DOCA-sodium chloride loaded hypertensive rats (having been bred for 5 weeks after removing one kidney) were respectively used as one group.
(§3) As the test compounds, Compound 1 and betanidin sulfate, which is a known hypotensive agent, were used.
(§4) The test compounds were respectively dissolved in 0.3% (w/v) CMC aqueous solution and each of the resulting solutions was orally administered to the rats in a dose of 1 ml/100 g. The amounts of the solutions administered were equal per unit weight of rats and the concentrations thereof were varied according to the doses of the compounds indicated in Table 8. The maximum reduction in blood pressure after the administration was measured according to the method of tail artery plethysmography.

blood pressure [3] = assay: Experiment 6 Dosage-reaction curve, DOCA-NaCl loaded hypertensive rats; type: in vivo, DOCA-sodium chloride loaded hypertensive rats; conditions: average of five rats
Text: as §1, §2, §3, §4

[4] = maximum reduction, oral, 5 mg per 100 g rat weight

Structure (SMILES)	inhibition in vivo at 50 mg/kg (blood pressure [1]; [4])	Number of Death I.P. (male dd-strain mice)	Number of Death P.O. (male dd-strain mice)	maximum reduction in blood pressure (blood pressure [2])	maximum reduction in blood pressure (blood pressure [3]; 1.0 mg/kg oral)	maximum reduction in blood pressure (blood pressure [3]; 10 mg/kg oral)	maximum reduction in blood pressure (blood pressure [3]; 50 mg/kg oral)	inhibition in vivo at 50 mg/kg (blood pressure [1]; Rattus norvegicus, po)
O=c1[nH]c2ccccc2n1C1=CCN(CCc2ccc3c(c2)OCO3)CC1 [Compound 12, 1-[2-(3,4-methylenedioxyphenyl)-1-ethyl]-4-(2-keto-1-benzimidazolinyl)-1,2,5,6-tetrahydropyridine]	6 to 10%	0	0	–	–	–	–	–
CCOC(=O)n1c(=O)n(C2CCN(CC(=O)c3ccc(OC)c(OC)c3)CC2)c2ccccc21 [Compound 35, 1-[2-oxo-2-(3,4-dimethoxyphenyl)-1-ethyl]-4-(2-keto-3-ethoxycarbonyl-1-benzimidazolinyl)-piperidine]	> 11%	0	0	–	–	–	–	–
CCOc1nc2ccccc2n1C1CCN(CC(O)c2ccc3c(c2)OCO3)CC1 (stereo not shown) [Compound 11, 1-[2-hydroxy-2-(3,4-methylenedioxyphenyl)-1-ethyl]-4-(2-ethoxy-1-benzimidazolinyl)-piperidine]	6 to 10%	0	0	–	–	–	–	–
COc1ccc(C(OC(C)=O)C(C)N2CCC(n3c(=O)n(C(C)=O)c4ccccc43)CC2)cc1OC (stereo not shown) [Compound 32, 1-[3-acetoxy-3-(3,4-dimethoxyphenyl)-2-propyl]-4-(3-acetyl-2-keto-1-benzimidazolinyl)-piperidine]	> 11%	0	0	–	–	–	–	–
CN=C(NC)NCc1ccccc1 [Betanidin sulfate, betanidin sulfate]	–	–	–	-40 mmHg	-25 mmHg	-34 mmHg	-58 mmHg	–
COc1ccc(C(OC(C)=O)C(C)N2CCC(n3c(=O)[nH]c4ccccc43)CC2)cc1OC (stereo not shown) [Compound 34, 1-[3-acetoxy-3-(3,4-dimethoxyphenyl)-2-propyl]-4-(2-keto-1-benzimidazolinyl)-piperidine]	–	0	0	–	–	–	–	> 11%
